The results in this text go back to patent US11439646B2, “Anti-proliferative agents for treating PAH” (Pfizer Inc., priority 2016, dated 2022).

Read-outs that look alike come from different tables or passages of the source.

For one test, the system named is phospho-Rb (Ser807/811). Put plainly: In-cell western analysis of Rb phosphorylation in human PASMCs. It is filed as cell-based. The following applies: for IC50: PASMC. How it is done:
In-cell western analysis. Primary PASMCs from normal human subjects were cultured and serum-starved as described above. Cells were first pre-incubated with different concentrations of palbociclib for 60 minutes, and then either 5% FBS or 10% FBS or 30 ng/ml PDGF-BB was added to stimulate cell proliferation and Rb phosphorylation. The effect of Palbociclib on Rb phosphorylation was evaluated 24 h later, using in-cell western assay according to the manufacturer's instructions (Li-Cor Biosciences, Lincoln, Nebr., USA). Phosphorylated Rb was measured using a rabbit monoclonal antibody anti-phospho-Rb (Ser807/811) (Cell Signaling Technology, Inc., Danvers, Mass., USA), followed by detection with IRDye 800CW infrared fluorescent dye-labeled goat anti-rabbit secondary antibody. Actin levels were measured using mouse anti-actin monoclonal antibodies (pan Ab-5) (Fisher Scientific Pittsburgh, Pa., USA; Sigma Aldrich, St. Louis, Mo., USA), and followed by detection with IRDye 680RD-labeled goat anti-mouse secondary antibody. See FIG. 2a where 5% FBS was used, FIG. 2b where PDGF-BB was used, and FIG. 2c where 10% FBS was used.

A further test relates to rat primary PASMCs. Put plainly: BrdU cell proliferation assay, rat primary PASMCs. It is filed as cell-based. The following applies: PASMC, 24 h, 5% FBS, average of 3, FIG. 1d, read-out: IC50, proliferation of rat primary PASMCs induced by 5% FBS. The protocol: Cell proliferation assay. Primary PASMCs and PAAFs from normal human subjects (ScienCell Research Laboratories, San Diego, Calif., USA) and rat primary PASMCs (Cell Applications, San Diego, Calif., USA) were plated in CellBIND® 96-well plates in Dulbecco's modification of Eagle's medium (DMEM) containing 5% fetal bovine serum (FBS), and serum-starved for 24 h in DMEM containing 0.1% FBS. Cells were first pre-incubated with different concentrations of palbociclib (in triplicates) for 30 minutes, and then 30 ng/ml PDGF-BB or 5% FBS was added to stimulate cell proliferation. Cells were maintained for 48 h before the proliferation rate was evaluated using the Cell Proliferation ELISA BrdU (bromodeoxyuridine) Luminescence Kit (Roche Diagnostics, Mannheim, Germany). BrdU was added to the medium 16 h before the quantification of BrdU incorporation. This procedure was use to generate data as presented in at least FIGS. 1a, 1b, 1c, and 1d. IC50 values were calculated for any given inhibitor by determining the concentration of compound needed to inhibit 50% of the response applied to the system. IC50 values were derived from the four parameter logistic equation which was fit to the compound concentration response data.

The test system of a further test is rat Su5416/Hx PAH model. The test is described as follows: Rat SuHx (Su5416/hypoxia)-induced PAH model (hemodynamics, histomorphometry, IHC). It is filed as in vivo. The protocol: SuHx-induced Pulmonary Arterial Hypertension: Sprague-Dawley rats were obtained from Charles River Laboratories (200-300 g; vehicle control, n=5; all other groups, n=10). Rats received Semaxinib dissolved in DMSO on day 0, followed by housing in low (13%) oxygen until day 28. Sildenafil (30 mg/kg/dose; BID), Riociguat (10 mg/kg, QD) or Palbociclib (100 mg/kg; QD) was administered in vehicle (0.5% methylcellulose) from days 7-28. Terminal hemodynamic evaluations and necropsy were conducted on day 28 in a manner similar to the MCT study.
Hemodynamic measurements Su/Hx study: On day 28, animals were anesthetized via intramuscular injection of ketamine/xylazine (80/10 mg/kg). A Millar catheter was inserted into the pulmonary artery and pulmonary pressure and hemodynamics were measured as described by Stringer et al., (1981) Catheterization of the pulmonary artery in the closed-chest rat. J. Appl. Physiol. 51, 1047-1050. Hemodynamic values were calculated using the NOTOCORD-Hem software (NOTOCORD, Inc., Croissy sur Sienne, France) (CorDynamics).
Measurement of RV hypertrophy. After collection of the heart at necropsy, the atria and great vessels were removed. The RV was separated from the LV and S. The wet weights of the RV and LV+S were measured to calculate the Fulton Index.
Tissue preparation. Under anesthesia, the animals were exsanguinated, and the pulmonary circulation flushed with oxygenated (animals from Example 3 [MCT]) or heparizined (animals from Example 4 [Su5416/Hx]) saline. Trachea, lungs, and heart were removed intact from thoracic cavity and placed in ice-cold saline. Right lung lobes were removed, weighed, and immediately flash frozen in liquid nitrogen. A 10 mL syringe filled with fixative (10% NBF) with attached blunt tip needle (20 g) was used to inflate the left lung lobe and the airway was tied off to keep it consistently expanded. The left lung was then immersion fixed in 10% NBF for 48 hrs and then transferred to 70% EtOH for ≤5 days.
Histomorphometric analysis. Three, 3-5 μm thick, transverse sections of the left lung lobe were used for histomorphometric analysis. Overall disease severity scores were determined by light microscopic evaluation of hematoxylin and eosin (H&E)-stained lung sections by a board-certified veterinary pathologist. Scores ranged from 0 (absent), 1 (minimal), 2 (mild), 3 (moderate), 4 (marked) to 5 (severe) and were assigned according to the approximate percentage of the tissue affected by the tissue changes (inflammatory, degenerative, vascular and/or proliferative) characteristic of the PAH model. Average vessel wall thickness was evaluated using lung sections prepared with a modified Verhoeff-van Gieson elastin stain. Image analysis was performed using random field sampling (Visiopharm newCAST) of 10% of tissue area with observer-assisted identification of intra-acinar and pre-acinar vessels and application of a nucleator probe to measure vessel wall thickness. Fully muscularized intra-acinar vessel density was evaluated in a similar manner using dual αSMA/Ki67 IHC-stained sections and observer-assisted counting of ≥70% muscularized (i.e. SMA^+), transversely sectioned, ≤50 μm external diameter, intra-acinar vessels with an identifiable lumen. Vessel-associated Ki67^+ and pRb^+ cells were counted in αSMA/Ki67 IHC-and CD31/pRb IHC-stained lung sections, respectively, using random field sampling of 10% of tissue area and observer-assisted identification of Ki67^+ or pRb^+ cells associated with the walls (i.e. in the intima or media) of vessels 100 μm external diameter.
Immunohistochemistry. Dual α-SMA/Ki67 nuclear antigen: All IHC steps were performed on 3 μm-thick, formalin-fixed, paraffin-embedded (FFPE) sections on Leica Bond Rx automated immunohistochemistry stainer. The instrument was programmed to bake and dewax the slides. […]

Where [1] appears, read: days 7 to 28, score scale 0-5, FIG. 4g.

As to `CC(=O)c1c(C)c2cnc(Nc3ccc(N4CCNCC4)cn3)nc2n(C2CCCC2)c1=O` [Palbociclib, 6-acetyl-8-cyclopentyl-5-methyl-2-{[5-(piperazin-1-yl)pyridin-2yl]amino}pyrido[2,3-d]pyrimidin-7(8H)-one], the IC50 in the test with phospho-Rb (Ser807/811) (Homo sapiens, 10% FBS, N = 6, FIG. 2c, read-out: Average IC50 (nM), inhibition of phosphorylation of Rb in hPASMCs) was found to be 64.2 nM; in the test with phospho-Rb (Ser807/811) (human PASMCs, 5% FBS, FIG. 2a, read-out: IC50, serum-induced Rb phosphorylation), 14.9 nM; in the test with phospho-Rb (Ser807/811) (human PASMCs, PDGF-BB, FIG. 2b, read-out: IC50, PDGF-BB induced Rb phosphorylation), 5.2 nM; in the test on rat primary PASMCs, 27.4 nM. Further, the “effect on total Rb levels” value in the test with phospho-Rb (Ser807/811) (human primary PASMCs, 5% FBS or PDGF-BB) is “little effect”. For the same compound, the “vessel-associated Ki67+ cells in the pulmonary vasculature (IHC)” value in the test with rat Su5416/Hx PAH model (days 7 to 28) is “fully reversed”. In the test on rat Su5416/Hx PAH model (days 7 to 28), the “vessel-associated pRb+ cells in the pulmonary vasculature (IHC)” value is reported as “fully reversed”. Moreover, the “Fulton Index” value with rat Su5416/Hx PAH model (days 7 to 28, FIG. 4c) is “significant reduction”. Also, the “muscularized intra-acinar vessel density relative to vehicle/Su5416/Hx group” value in the test on rat Su5416/Hx PAH model (days 7 to 28, FIG. 4e) is 0.68 x Su5416/Hx. The “structural changes in the pulmonary vasculature (histomorphometry)” value in the test with rat Su5416/Hx PAH model (days 7 to 28, FIG. 4f) is “dramatically improved and in some cases fully normalized”. In addition, in the test with rat Su5416/Hx PAH model (days 7 to 28, FIG. 4j), the “heart weight vs vehicle/Su5416/Hx group” value is on record as “significant reduction”. In addition, the “average vessel wall thickness, intra-acinar and pre-acinar vessels” value with rat Su5416/Hx PAH model (days 7 to 28, FIG. 4d) is “significantly reduced”. For the same compound, the “disease severity scores, mean” value with rat Su5416/Hx PAH model (setting [1]) is 0.25. Besides, in the test on rat Su5416/Hx PAH model (setting [1]), the “disease severity scores, range” value was 0-1.5. In addition, the “hemodynamic endpoints / hemodynamic changes” value is reported as “restored hemodynamic endpoints closer to the non-diseased control group” in the test with rat Su5416/Hx PAH model (palbociclib 100 mg/kg/day PO QD days 7 to 28) and “near-complete suppression” in the test on rat Su5416/Hx PAH model (palbociclib 100 mg/kg/day PO QD days 7 to 28, listed as palbociclib).
